Key:
[1] = target: T1, Human 5-HT4(d) (Homo sapiens, UniProt Q13639); assay: Agonist-induced cAMP elevation in human 5-HT4(d) transfected HEK293 cells; type: cell-based; conditions: for Emax: HEK293, cAMP production normalized to the amount produced by 1,000 nM serotonin; for EC50: cAMP elevation (HTRF), human 5-HT4(d) transfected HEK293 cells
T1 construct: expressed in transfected cells
Procedure: Human 5-HT4(d) transfected HEK293 cells were established in-house. The cells were grown at 37° C. and 5% CO2 in DMEM supplemented with 10% FCS, 20 mM HEPES (pH 7.4), 200 μg/ml hygromycin B (Gibco), 100 units/ml penicillin and 100 μg/ml streptomycin.
The cells were grown to 60-80% confluence. On the previous day before treatment with compounds dialyzed FCS (Gibco) was substituted for normal and the cells were incubated overnight.
Compounds were prepared in 96-well plates (12.5 μl/well). The cells were harvested with PBS/1 mM EDTA, centrifuged and washed with PBS. At the beginning of the assay, cell pellet was resuspended in DMEM supplemented with 20 mM HEPES, 10 μM pargyline (Sigma) and 1 mM 3-isobutyl-1-methylxanthine (Sigma) at the concentration of 1.6×10^5 cells/ml and left for 15 min at room temperature. The reaction was initiated by addition of the cells into plates (12.5 μl/well). After incubation for 15 min at room temperature, 1% Triton X-100 was added to stop the reaction (25 μl/well) and the plates were left for 30 minutes at room temperature. Homogenous time-resolved fluorescence-based cAMP (Schering) detection was made according to the manufacturer's instruction. ARVOsx multilabel counter (Wallac) was used to measure HTRF (excitation 320 nm, emission 665 nm/620 nm, delay time 50 μs, window time 400 μs).
Data was analyzed based on the ratio of fluorescence intensity of each well at 620 nm and 665 nm followed by cAMP quantification using cAMP standard curve. Enhancement of cAMP production elicited by each compound was normalized to the amount of cAMP produced by 1,000 nM serotonin (Sigma).

T1 sequence (Q13639 1-360 isoform Q13639-3): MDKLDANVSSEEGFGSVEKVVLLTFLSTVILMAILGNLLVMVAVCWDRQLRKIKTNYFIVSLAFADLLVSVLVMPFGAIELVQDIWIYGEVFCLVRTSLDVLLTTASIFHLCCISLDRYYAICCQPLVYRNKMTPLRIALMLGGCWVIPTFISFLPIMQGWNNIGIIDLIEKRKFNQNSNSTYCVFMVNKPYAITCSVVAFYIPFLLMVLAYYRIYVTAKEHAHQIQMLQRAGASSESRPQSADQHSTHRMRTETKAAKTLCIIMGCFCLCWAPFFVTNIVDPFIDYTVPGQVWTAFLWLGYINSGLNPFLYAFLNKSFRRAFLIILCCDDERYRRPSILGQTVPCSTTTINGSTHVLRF

| melting point [°C] | Emax [1] [%] | EC50 [1] [nM] | Structure (SMILES) |
| --- | --- | --- | --- |
| 223.2 | 61 | 5.3 | O=C(O)C1(CCN2CCC(COc3noc4cccc(OCC5CCC5)c34)CC2)CCOCC1 [Example 21, 4-{2-[4-({[4-(cyclobutylmethoxy)-1,2-benzisoxazol-3-yl]oxy}methyl)piperidin-1-yl]ethyl}tetrahydro-2H-pyran-4-carboxylic acid] |
| 140.8 | 52 | 1.9 | O[C@@H]1CCC[C@@H]1Oc1cccc2onc(OCC3CCN(CC4(O)CCOCC4)CC3)c12 (relative stereo) [Example 36, 4-({4-[({4-[(cis-2-Hydroxycyclopentyl)oxy]-1,2-benzisoxazol-3-yl}oxy)methyl]piperidin-1-yl}methyl)-tetrahydro-2H-pyran-4-ol] |
| 154.6 | 70 | 11 | O=C(O)[C@H]1CC[C@H](CN2CCC(COc3noc4cccc(OC5CCOCC5)c34)CC2)CC1 [Example 29, trans-4-{[4-({[4-(Tetrahydro-2H-pyran-4-yloxy)-1,2-benzisoxazol-3-yl]oxy}methyl)piperidin-1-yl]methyl}cyclohexanecarboxylic acid] |
| 172.9 | 78 | 6.6 | O=C(O)C1(CN2CCC(COc3noc4cccc(OC5CCOCC5)c34)CC2)CCCC1 [Example 28, 1-{[4-({[4-(Tetrahydro-2H-pyran-4-yloxy)-1,2-benzisoxazol-3-yl]oxy}methyl)piperidin-1-yl]methyl}-cyclopentanecarboxylic acid] |
| 197.2 | 45 | 5.5 | O=C(O)C1(CN2CCC(COc3noc4cccc(O[C@H]5CC[C@@H](CO)CC5)c34)CC2)CCOCC1 [Example 46, 4-[(4-{[(4-{[cis-4-(Hydroxymethyl)cyclohexyl]oxy}-1,2-benzisoxazol-3-yl)oxy]methyl}piperidin-1-yl)-methyl]tetrahydro-2H-pyran-4-carboxylic acid] |
| 175.5 | 52 | 2 | O=C(O)C1(CN2CCC(COc3noc4cccc(OCC5CCC5)c34)CC2)CCOCC1 [Example 18, 4-{[4-({[4-(Cyclobutylmethoxy)-1,2-benzisoxazol-3-yl]oxy}methyl)piperidin-1-yl]methyl}tetrahydro-2H-pyran-4-carboxylic acid] |
| 158 | 77 | 1.2 | O=C(O)[C@H]1CC[C@H](CN2CCC(COc3noc4cccc(OCC(F)(F)F)c34)CC2)CC1 [Example 4, trans-4-{[4-({[4-(2,2,2-Trifluoroethoxy)-1,2-benzisoxazol-3-yl]oxy}methyl)-piperidin-1-yl]methyl}cyclohexanecarboxylic acid] |
| 164.9 | 47 | 0.51 | O=C(O)C1(CN2CCC(COc3noc4cccc(OCC(F)(F)F)c34)CC2)CCC1 [Example 2, 1-{[4-({[4-(2,2,2-Trifluoroethoxy)-1,2-benzisoxazol-3-yl]oxy}methyl)piperidin-1-yl]methyl}-cyclobutanecarboxylic acid] |
| 185.6 | 73 | 4.4 | O=C(O)C1(CN2CCC(COc3noc4cccc(OCC5CCCC5)c34)CC2)CCOCC1 [Example 22, 4-{[4-({[4-(Cyclopentylmethoxy)-1,2-benzisoxazol-3-yl]oxy}methyl)piperidin-1-yl]methyl}tetrahydro-2H-pyran-4-carboxylic acid] |
| 136.5 | 31 | 27 | OC1(COc2cccc3onc(OCC4CCN(CC5(O)CCOCC5)CC4)c23)CCCC1 [Example 31, 4-({4-[{(4-[(1-Hydroxycyclopentyl)methoxy]-1,2-benzisoxazol-3-yl}oxy)methyl]piperidin-1-yl}-methyl)tetrahydro-2H-pyran-4-ol] |
| 194.2 | 50 | 98 | O=C(O)C1(CN2CCC(COc3noc4cccc(OCC5(CO)CCC5)c34)CC2)CCC1 [Example 50] |
| 189.6 | 42 | 3.8 | O=C(O)C1(CN2CCC(COc3noc4cccc(O[C@H]5CC[C@@H](O)CC5)c34)CC2)CCCC1 [Example 45, 1-({4-[({4-[(cis-4-Hydroxycyclohexyl)oxy]-1,2-benzisoxazol-3-yl}oxy)methyl]piperidin-1-yl}methyl)-cyclopentanecarboxylic acid] |
| 188 | 43 | 4.3 | O=C(O)C1(CN2CCC(COc3noc4cccc(O[C@H]5CC[C@@H](CO)CC5)c34)CC2)CCCC1 [Example 48, 1-[(4-{[(4-{[cis-4-(Hydroxymethyl)cyclohexyl]oxy}-1,2-benzisoxazol-3-yl)oxy]methyl}piperidin-1-yl)methyl]cyclopentanecarboxylic acid] |
| 176.6 | 35 | 48 | O=C(O)C1(CN2CCC(CCOc3noc4cccc(OCC(F)(F)F)c34)CC2)CCOCC1 [Example 7, 4-{[4-(2-{[4-(2,2,2-Trifluoroethoxy)-1,2-benzisoxazol-3-yl]oxy}ethyl)piperidin-1-yl]methyl}tetrahydro-2H-pyran-4-carboxylic acid] |
| 182.7 | 55 | 2.4 | O=C(O)[C@H]1CC[C@H](CN2CCC(COc3noc4cccc(O[C@H]5CC[C@@H](O)CC5)c34)CC2)CC1 [Example 44, trans-4-({4-[({4-[(cis-4-Hydroxycyclohexyl)oxy]-1,2-benzisoxazol-3-yl}oxy)methyl]piperidin-1-yl}-methyl)cyclohexanecarboxylic acid] |
| 177.7 | 52 | 1.4 | O=C(O)C1(CN2CCC(COc3noc4cccc(OC5CCCC5)c34)CC2)CCOCC1 [Example 24, 4-{[4-({[4-(Cyclopentyloxy)-1,2-benzisoxazol-3-yl]oxy}methyl)piperidin-1-yl]methyl}tetrahydro-2H-pyran-4-carboxylic acid] |
| 212.5 | 77 | 22 | O=C(O)C1(CCN2CCC(COc3noc4cccc(OCC5CCCC5)c34)CC2)CCOCC1 [Example 23, 4-{2-[4-({[4-(Cyclopentylmethoxy)-1,2-benzisoxazol-3-yl]oxy}methyl)piperidin-1-yl]ethyl}tetrahydro-2H-pyran-4-carboxylic acid] |

| Structure (SMILES) | melting point [°C] | Emax [1] [%] | EC50 [1] [nM] |
| --- | --- | --- | --- |
| CC(C)COc1cccc2onc(OCC3CCN(CC4(C(=O)O)CCOCC4)CC3)c12 [Example 10, 4-[(4-{[(4-Isobutoxy-1,2-benzisoxazol-3-yl)oxy]methyl}piperidin-1-yl)methyl]tetrahydro-2H-pyran-4-carboxylic acid] | 153.4 | 45 | 3.1 |
| CC(C)COc1cccc2onc(OCC3CCN(CCC4(C(=O)O)CCOCC4)CC3)c12 [Example 13, 4-[2-(4-{[(4-Isobutoxy-1,2-benzisoxazol-3-yl)oxy]methyl}piperidin-1-yl)ethyl]tetrahydro-2H-pyran-4-carboxylic acid] | 213.8 | 54 | 2.7 |
| CC(C)COc1cccc2onc(OCC3CCN(CC4(C(=O)O)CCC4)CC3)c12 [Example 12, 1-[(4-{[(4-Isobutoxy-1,2-benzisoxazol-3-yl)oxy]methyl}piperidin-1-yl)methyl]cyclobutanecarboxylic acid] | 168.8 | 45 | 2.3 |
| CC(C)COc1cccc2onc(OCC3CCN(C[C@H]4CC[C@H](C(=O)O)CC4)CC3)c12 [Example 14, trans-4-[(4-{[(4-Isobutoxy-1,2-benzisoxazol-3-yl)oxy]methyl}piperidin-1-yl)methyl]cyclohexane-carboxylic acid] | 103.3 | 41 | 2 |
| CC(C)COc1cccc2onc(OCCC3CCN(CC4(C(=O)O)CCOCC4)CC3)c12 [Example 15, 4-[(4-{2-[(4-isobutoxy-1,2-benzisoxazol-3-yl)oxy]ethyl}piperidin-1-yl)methyl]tetrahydro-2H-pyran-4-carboxylic acid] | 117.8 | 32 | 39 |
| CC(C)COc1cccc2onc(OCC3CCN(CC(C)(C)C(=O)O)CC3)c12 [Example 11, 3-(4-{[(4-Isobutoxy-1,2-benzisoxazol-3-yl)oxy]methyl}piperidin-1-yl)-2,2-dimethylpropanoic acid] | 123.7 | 29 | 1.4 |
| CC(C)COc1cccc2onc(OCC3CCN(CC4(C(=O)O)CCCC4)CC3)c12 [Example 9, 1-[(4-{[(4-Isobutoxy-1,2-benzisoxazol-3-yl)oxy]methyl}piperidin-1-yl)methyl]cyclopentane-carboxylic acid] | 156.3 | 36 | 2.9 |

From patent publication US8816090B2, “Benzisoxazole derivatives” (Pfizer Inc., priority 2005, dated 2014)
